# Experimental data: patent publication US6358885B1, “Substituted phenylheterocyclic herbicides” (Mississippi State University, priority 1992, dated 2002)
# Legend:
# barley = test: Test B preemergence/postemergence greenhouse plant response rating 0 to 10; assay type: in vivo, Hordeum vulgare; conditions: 0 to 10 scale
# Method in brief: (§1)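 Planted seeds are treated preemergence with compound dissolved in a non-phytotoxic solvent, while postemergence applications go onto plants of two to eighteen cm. Plants stay in the greenhouse twelve to sixteen days and are then rated visually relative to controls.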
# bedstraw = test: as above; assay type: in vivo, Galium aparine; conditions: 0 to 10 scale
# Method in brief: as §1
# blackgrass = test: as above; assay type: in vivo, Alopecurus myosuroides; conditions: 0 to 10 scale
# Method in brief: as §1
# cocklebur = test: as above; assay type: in vivo, Xanthium pensylvanicum; conditions: 0 to 10 scale
# Method in brief: as §1
# crabgrass = test: as above; assay type: in vivo, Digitaria spp.; conditions: 0 to 10 scale
# Method in brief: as §1
# lambsquarters = test: as above; assay type: in vivo, Chenopodium album; conditions: 0 to 10 scale
# Method in brief: as §1
# rape = test: as above; assay type: in vivo, Brassica napus; conditions: 0 to 10 scale
# Method in brief: as §1
# rice = test: as above; assay type: in vivo, Oryza sativa; conditions: 0 to 10 scale
# Method in brief: as §1
# soybean = test: as above; assay type: in vivo, Glycine max; conditions: 0 to 10 scale
# Method in brief: as §1
# sugar beet = test: as above; assay type: in vivo, Beta vulgaris; conditions: 0 to 10 scale
# Method in brief: as §1
# purple nutsedge = test: as above; assay type: in vivo, Cyperus rotundus; conditions: 0 to 10 scale
# Method in brief: as §1
# corn = test: Test C preemergence/postemergence greenhouse plant response rating 0 to 100; assay type: in vivo, Zea mays; conditions: for Plant response rating, Corn: 0 to 100 scale
# From the text: (§2) The compounds evaluated in this test were formulated in a non-phytoxic solvent and applied to the soil surface before plant seedlings emerged (preemergence application), to water that covered the soil surface (flood application), and to plants that were in the one-to-four leaf stage (postemergence application). A sandy loam soil was used for the preemergence and postemergence tests, while a silt loam soil was used in the flood test. Water depth was approximately 2.5 cm for the flood test and was maintained at this level for the duration of the test. Plant species in the preemergence and postemergence tests consisted of barley (Hordeum vulgare), bedstraw (Galium aparine), blackgrass (Alopecurus myosuroides), chickweed (Stellaria media), corn (Zea mays), cotton (Gossypium hirsutum), crabgrass (Digitaria sanguinalis), downy brome (Bromus tectorum), giant foxtail (Setaria faberii), lambsquarters (Chenopodium album), morningglory (Ipomoea hederacea), pigweed ([…]), rape (Brassica napus), ryegrass (Lolium multiflorum), sorghum (Sorghum bicolor), soybean (Glycine max), speedwell (Veronica persica), sugar beet (Beta vulgaris), velvetleaf (Abutilon theophrasti), wheat (Triticum aestivum), wild buckwheat (Polygonum convolvulus), and wild oat (Avena fatua). All plant species were planted one day before application of the compound for the preemergence portion-of this test. Plantings of these species were adjusted to produce plants of appropriate size for the post-emergence portion of the test. […] All plant species were grown using normal greenhouse practices. Visual evaluations of injury expressed on treated plants, when compared to untreated controls, were recorded approximately fourteen to twenty one days after application of the test compound. […] A dash (-) response means no test result.
# morningglory = test: as above; assay type: in vivo, Ipomoea hederacea; conditions: for Plant response rating, Morningglory: 0 to 100 scale
# From the text: as §2
# pigweed = test: as above; assay type: in vivo, Amaranthusretroflexus; conditions: for Plant response rating Pigweed: 0 to 100 scale
# From the text: as §2
# sorghum = test: as above; assay type: in vivo, Sorghum bicolor; conditions: for Plant response rating, Sorghum: 0 to 100 scale
# From the text: as §2
smiles,measurement,setting,value
C#CCN1C(=O)COc2cc(F)c(-c3nn4c(c3Br)CCCC4)cc21 [Compound 56],"Plant response rating, Barley","barley; POSTEMERGENCE, Rate 10 g/ha",6
same,"Plant response rating, Barley","barley; POSTEMERGENCE, Rate 50 g/ha",7
same,"Plant response rating, Barley","barley; PREEMERGENCE, Rate 10 g/ha",0
same,"Plant response rating, Barley","barley; PREEMERGENCE, Rate 50 g/ha",2
same,"Plant response rating, Bedstraw","bedstraw; POSTEMERGENCE, Rate 10 g/ha",8
same,"Plant response rating, Bedstraw","bedstraw; POSTEMERGENCE, Rate 50 g/ha",10
same,"Plant response rating, Bedstraw","bedstraw; PREEMERGENCE, Rate 10 g/ha",4
same,"Plant response rating, Bedstraw","bedstraw; PREEMERGENCE, Rate 50 g/ha",9
same,"Plant response rating, Blackgrass","blackgrass; POSTEMERGENCE, Rate 10 g/ha",6
same,"Plant response rating, Blackgrass","blackgrass; POSTEMERGENCE, Rate 50 g/ha",7
same,"Plant response rating, Blackgrass","blackgrass; PREEMERGENCE, Rate 10 g/ha",3
same,"Plant response rating, Blackgrass","blackgrass; PREEMERGENCE, Rate 50 g/ha",6
same,"Plant response rating, Cocklebur","cocklebur; POSTEMERGENCE, Rate 10 g/ha",10
same,"Plant response rating, Cocklebur","cocklebur; POSTEMERGENCE, Rate 50 g/ha",10
same,"Plant response rating, Cocklebur","cocklebur; PREEMERGENCE, Rate 10 g/ha",2
same,"Plant response rating, Cocklebur","cocklebur; PREEMERGENCE, Rate 50 g/ha",2
same,"Plant response rating, Crabgrass","crabgrass; POSTEMERGENCE, Rate 10 g/ha",4
same,"Plant response rating, Crabgrass","crabgrass; POSTEMERGENCE, Rate 50 g/ha",6
same,"Plant response rating, Crabgrass","crabgrass; PREEMERGENCE, Rate 10 g/ha",0
same,"Plant response rating, Crabgrass","crabgrass; PREEMERGENCE, Rate 50 g/ha",3
same,"Plant response rating, Lambsquarter","lambsquarters; POSTEMERGENCE, Rate 10 g/ha",10
same,"Plant response rating, Lambsquarter","lambsquarters; POSTEMERGENCE, Rate 50 g/ha",10
same,"Plant response rating, Lambsquarter","lambsquarters; PREEMERGENCE, Rate 50 g/ha",10
same,"Plant response rating, Rape","rape; POSTEMERGENCE, Rate 10 g/ha",10
same,"Plant response rating, Rape","rape; POSTEMERGENCE, Rate 50 g/ha",10
same,"Plant response rating, Rape","rape; PREEMERGENCE, Rate 50 g/ha",3
same,"Plant response rating, Rice","rice; POSTEMERGENCE, Rate 10 g/ha",3
same,"Plant response rating, Rice","rice; POSTEMERGENCE, Rate 50 g/ha",4
same,"Plant response rating, Rice","rice; PREEMERGENCE, Rate 50 g/ha",0
same,"Plant response rating, Soybean","soybean; POSTEMERGENCE, Rate 10 g/ha",9
same,"Plant response rating, Soybean","soybean; POSTEMERGENCE, Rate 50 g/ha",8
same,"Plant response rating, Soybean","soybean; PREEMERGENCE, Rate 50 g/ha",0
same,"Plant response rating, Sugar beet","sugar beet; POSTEMERGENCE, Rate 10 g/ha",10
same,"Plant response rating, Sugar beet","sugar beet; POSTEMERGENCE, Rate 50 g/ha",10
same,"Plant response rating, Sugar beet","sugar beet; PREEMERGENCE, Rate 50 g/ha",9
same,"Plant response rating, Nutsedge","purple nutsedge; POSTEMERGENCE, Rate 10 g/ha",4
same,"Plant response rating, Nutsedge","purple nutsedge; POSTEMERGENCE, Rate 50 g/ha",7
same,"Plant response rating, Nutsedge","purple nutsedge; PREEMERGENCE, Rate 50 g/ha",4
same,"Plant response rating, Corn","corn; POSTEMERGENCE, 62 g/ha",50
same,"Plant response rating (0 to 100), Corn","corn; POSTEMERGENCE, Rate 1 g/ha",20
same,"Plant response rating (0 to 100), Corn","corn; POSTEMERGENCE, Rate 4 g/ha",30
same,"Plant response rating (0 to 100), Corn","corn; Rate 16 g/ha, POSTEMERGENCE",40
same,"Plant response rating, Morningglory","morningglory; POSTEMERGENCE, 62 g/ha",100
same,"Plant response rating (0 to 100), Morningglory","morningglory; POSTEMERGENCE, Rate 1 g/ha",50
same,"Plant response rating (0 to 100), Morningglory","morningglory; POSTEMERGENCE, Rate 4 g/ha",100
same,"Plant response rating (0 to 100), Morningglory","morningglory; Rate 16 g/ha, POSTEMERGENCE",100
same,Plant response rating Pigweed,"pigweed; POSTEMERGENCE, 62 g/ha",100
same,"Plant response rating (0 to 100), Pigweed","pigweed; POSTEMERGENCE, Rate 1 g/ha",100
same,"Plant response rating (0 to 100), Pigweed","pigweed; POSTEMERGENCE, Rate 4 g/ha",100
same,"Plant response rating (0 to 100), Pigweed","pigweed; Rate 16 g/ha, POSTEMERGENCE",100
same,"Plant response rating, Sorghum","sorghum; POSTEMERGENCE, 62 g/ha",60
same,"Plant response rating (0 to 100), Sorghum","sorghum; POSTEMERGENCE, Rate 1 g/ha",20
same,"Plant response rating (0 to 100), Sorghum","sorghum; POSTEMERGENCE, Rate 4 g/ha",30
same,"Plant response rating (0 to 100), Sorghum","sorghum; Rate 16 g/ha, POSTEMERGENCE",50
CCCN1C(=O)COc2cc(F)c(-c3nn4c(c3Br)CCCC4)cc21 [Compound 63],"Plant response rating, Barley","barley; POSTEMERGENCE, Rate 10 g/ha",4
same,"Plant response rating, Barley","barley; POSTEMERGENCE, Rate 50 g/ha",5
same,"Plant response rating, Barley","barley; PREEMERGENCE, Rate 10 g/ha",0
same,"Plant response rating, Barley","barley; PREEMERGENCE, Rate 50 g/ha",0
same,"Plant response rating, Bedstraw","bedstraw; POSTEMERGENCE, Rate 10 g/ha",6
same,"Plant response rating, Bedstraw","bedstraw; POSTEMERGENCE, Rate 50 g/ha",8
same,"Plant response rating, Bedstraw","bedstraw; PREEMERGENCE, Rate 10 g/ha",4
same,"Plant response rating, Bedstraw","bedstraw; PREEMERGENCE, Rate 50 g/ha",10
same,"Plant response rating, Blackgrass","blackgrass; POSTEMERGENCE, Rate 10 g/ha",4
same,"Plant response rating, Blackgrass","blackgrass; POSTEMERGENCE, Rate 50 g/ha",4
same,"Plant response rating, Blackgrass","blackgrass; PREEMERGENCE, Rate 10 g/ha",0
same,"Plant response rating, Blackgrass","blackgrass; PREEMERGENCE, Rate 50 g/ha",3
same,"Plant response rating, Cocklebur","cocklebur; POSTEMERGENCE, Rate 10 g/ha",8
same,"Plant response rating, Cocklebur","cocklebur; POSTEMERGENCE, Rate 50 g/ha",9
same,"Plant response rating, Cocklebur","cocklebur; PREEMERGENCE, Rate 10 g/ha",0
same,"Plant response rating, Cocklebur","cocklebur; PREEMERGENCE, Rate 50 g/ha",0
same,"Plant response rating, Crabgrass","crabgrass; POSTEMERGENCE, Rate 10 g/ha",3
same,"Plant response rating, Crabgrass","crabgrass; POSTEMERGENCE, Rate 50 g/ha",3
same,"Plant response rating, Crabgrass","crabgrass; PREEMERGENCE, Rate 10 g/ha",0
same,"Plant response rating, Crabgrass","crabgrass; PREEMERGENCE, Rate 50 g/ha",0
same,"Plant response rating, Lambsquarter","lambsquarters; POSTEMERGENCE, Rate 10 g/ha",9
same,"Plant response rating, Lambsquarter","lambsquarters; POSTEMERGENCE, Rate 50 g/ha",10
same,"Plant response rating, Lambsquarter","lambsquarters; PREEMERGENCE, Rate 50 g/ha",10
same,"Plant response rating, Rape","rape; POSTEMERGENCE, Rate 10 g/ha",9
same,"Plant response rating, Rape","rape; POSTEMERGENCE, Rate 50 g/ha",9
same,"Plant response rating, Rape","rape; PREEMERGENCE, Rate 50 g/ha",6
same,"Plant response rating, Rice","rice; POSTEMERGENCE, Rate 10 g/ha",3
same,"Plant response rating, Rice","rice; POSTEMERGENCE, Rate 50 g/ha",5
same,"Plant response rating, Rice","rice; PREEMERGENCE, Rate 50 g/ha",0
same,"Plant response rating, Soybean","soybean; POSTEMERGENCE, Rate 10 g/ha",6
same,"Plant response rating, Soybean","soybean; POSTEMERGENCE, Rate 50 g/ha",5
same,"Plant response rating, Soybean","soybean; PREEMERGENCE, Rate 50 g/ha",0
same,"Plant response rating, Sugar beet","sugar beet; POSTEMERGENCE, Rate 10 g/ha",10
same,"Plant response rating, Sugar beet","sugar beet; POSTEMERGENCE, Rate 50 g/ha",10
same,"Plant response rating, Sugar beet","sugar beet; PREEMERGENCE, Rate 50 g/ha",10
same,"Plant response rating, Nutsedge","purple nutsedge; POSTEMERGENCE, Rate 10 g/ha",1
same,"Plant response rating, Nutsedge","purple nutsedge; POSTEMERGENCE, Rate 50 g/ha",6
same,"Plant response rating, Nutsedge","purple nutsedge; PREEMERGENCE, Rate 50 g/ha",0
same,"Plant response rating, Corn","corn; PREEMERGENCE, 62 g/ha",20
same,"Plant response rating, Corn","corn; PREEMERGENCE, 250 g/ha",30
same,"Plant response rating (0 to 100), Corn","corn; PREEMERGENCE, Rate 4 g/ha",0
same,"Plant response rating (0 to 100), Corn","corn; Rate 16 g/ha, PREEMERGENCE",0
same,"Plant response rating, Morningglory","morningglory; PREEMERGENCE, 62 g/ha",40
same,"Plant response rating, Morningglory","morningglory; PREEMERGENCE, 250 g/ha",100
same,"Plant response rating (0 to 100), Morningglory","morningglory; PREEMERGENCE, Rate 4 g/ha",0
same,"Plant response rating (0 to 100), Morningglory","morningglory; Rate 16 g/ha, PREEMERGENCE",10
same,Plant response rating Pigweed,"pigweed; PREEMERGENCE, 62 g/ha",100
same,Plant response rating Pigweed,"pigweed; PREEMERGENCE, 250 g/ha",100
same,"Plant response rating (0 to 100), Pigweed","pigweed; PREEMERGENCE, Rate 4 g/ha",0
same,"Plant response rating (0 to 100), Pigweed","pigweed; Rate 16 g/ha, PREEMERGENCE",100
same,"Plant response rating, Sorghum","sorghum; PREEMERGENCE, 250 g/ha",20
same,"Plant response rating (0 to 100), Sorghum","sorghum; PREEMERGENCE, Rate 4 g/ha",0
same,"Plant response rating (0 to 100), Sorghum","sorghum; Rate 16 g/ha, PREEMERGENCE",0
